24 compounds from patent US20160168140A1, “HETEROCYCLIC COMPOUNDS AS ANTIBIOTIC POTENTIATORS” (priority 2014, published 2016) can be followed below.

The first experiment relates to Acinetobacter baumannii (Ab23). In words: MIC shift assay of antibiotics (broth microdilution). The experiment is classed as cell-based. The conditions noted are these: compound concentration 2 μM; fold shift of colistin MIC; nc = no changeover or no shift. As for the experimental part:
Minimum inhibitory concentration (MIC) shift assays were performed to determine if the test compounds could alter the MIC of existing antibacterial drugs (e.g., ciprofloxacin and colistin) for E. coli, Acinetobacter baumannii, Klebsiella pneumoniae, Pseudomonas aeruginosa, and Enterobacter cloacae. The MIC shift assay is based on the standard broth microdilution MIC determination protocol of Wiegand et al, Nat Protoc. 3(2):163-75 (2008), with slight modifications that allow for the screening of up to seven test compounds in a single plate.
On the day before an assay, bacteria were grown overnight in cation-adjusted Mueller Hinton broth (CAMHB; Teknova, Hollister, Calif.) at 37° C. in an orbital shaker and sub-cultured at a 1:200 dilution the following morning. The cells were grown to OD600=0.5 to 0.8 and then diluted to OD600=0.01. From a serial dilution of each antibiotic at (50 μL of 2× concentrated stock solutions) several concentrations were added to the wells of a sterile, transparent round-bottom 96-well plate (Phenix Research Products, Candler, N.C.), and diluted cells (50 μL) were added to the plates for a starting OD600 of 0.005. […] A row of wells lacking test compound but containing the antibiotic was used to determine the MIC of that antibiotic alone. A column of wells lacking both antibiotic and test compound served as a growth control, and an additional column containing only CAMHB was included as a sterile blank control.
The plates were incubated for 18 to 20 h at 37° C. in an orbital shaker, and the cell density (OD600) was determined the following day in a microplate reader (PolarStar Optima, BMG Labtech). The MIC shift was determined by comparing the MIC of the antibiotic alone to the MIC of the antibiotic plus test compound.
Background: In broth dilution the organism is exposed to a series of concentrations in liquid medium.
In the case of `O=C(Nc1ccc(Cl)c(Cl)c1)c1c[nH]c2ccc(Br)cc12` [compound 420], the “colistin MIC shift, Ab23 at (compd concentration)” value (from here on “colistin MIC shift, Ab23”) stood at 16x.
Same read-out and setting: the value for `O=C(Nc1ccc(Cl)c(Cl)c1)c1c[nH]c2cc(Br)ccc12` [compound 424] was 4x.
On the same count and under the same terms, the value for `FC(F)(F)c1cccc(-c2c[nH]c3ccc(Cl)cc23)c1` [compound 430] was 16x.

Staying with this experiment, now noted: compound concentration 4 μM; fold shift of colistin MIC; nc = no changeover or no shift.
In the case of `Fc1ccc2c(/C=C/c3cc(Cl)ccc3Cl)c[nH]c2c1` [compound 384], the “colistin MIC shift, Ab23” value is given as 8-16x.
As for `Fc1ccc2c(/C=C/c3ccc(F)c(C(F)(F)F)c3)c[nH]c2c1` [compound 385], the “colistin MIC shift, Ab23” value was 8-16 x.
Same read-out and setting: the value for `Fc1ccc2c(/C=C/c3cc(C(F)(F)F)cc(C(F)(F)F)c3)c[nH]c2c1` [compound 386] was 16x; that for `Fc1ccc2c(/C=C/c3ccc(C(F)(F)F)cc3)c[nH]c2c1` [compound 387] was 16x.
The same measure, in the same setting: the value for `Fc1ccc2c(/C=C/c3cc(Cl)cc(Cl)c3)c[nH]c2c1` [compound 388] was 16x; that for `Fc1ccc2c(/C=C/c3cc(Br)cc(Br)c3)c[nH]c2c1` [compound 389] was 16x.
Same read-out and setting: to `FC(F)(F)c1ccc2c(-c3ccc(Cl)c(Cl)c3)n[nH]c2c1` [compound 390, 3-(3,4-dichlorophenyl)-6-(trifluoromethyl)-1H-indazole] belongs 16x; to `FC(F)(F)c1ccc2c(-c3ccc(Cl)c(Cl)c3)nn(Cc3ccc(Cl)cc3)c2c1` [compound 391, 1-(4-chlorobenzyl)-3-(3,4-dichlorophenyl)-6-(trifluoromethyl)-1H-indazole], 16x.
As to `O=C(c1ccc(Cl)c(Cl)c1)n1nc(-c2ccc(Cl)c(Cl)c2)c2ccc(C(F)(F)F)cc21` [compound 392, (3,4-dichlorophenyl)(3-(3,4-dichlorophenyl)-6-(trifluoromethyl)-1H-indazol-1-yl)methanone], the “colistin MIC shift, Ab23” value was 16x.
Same read-out and setting: the value for `Fc1ccc2c(/C=C/c3ccc(C(F)(F)F)c(Cl)c3)c[nH]c2c1` [compound 393] was 16x; that for `Fc1ccc2c(/C=C/c3ccc(OC(F)(F)F)cc3)c[nH]c2c1` [compound 394] was 8x.
Still for that read-out and setting: the value for `Clc1ccc2[nH]cc(-c3ccc(Cl)c(Cl)c3)c2c1` [compound 395, 5-Chloro-3-(3,4-dichlorophenyl)-1H-indole] was 8x; that for `Fc1ccc2c(/C=C/c3cccc(C(F)(F)F)c3)c[nH]c2c1` [compound 396] was 8x.
Consider `Fc1ccc2c(/C=C/c3cc(Cl)c(Cl)c(Cl)c3)c[nH]c2c1` [compound 397], for which the “colistin MIC shift, Ab23” value was 8x.
As for `FC(F)(F)c1cccc(-c2ccc3[nH]ccc3c2)c1` [compound 398, 5-(3-(trifluoromethyl)phenyl)-1H-indole], the “colistin MIC shift, Ab23” value is given as 4x.
Still for that read-out and setting: to `Clc1ccc(CCc2c[nH]c3ccc(Br)cc23)cc1Cl` [compound 411] belongs 8x; to `Clc1ccc(NCc2c[nH]c3ccc(Br)cc23)cc1Cl` [compound 418], 16 x.

Still in this experiment, the particulars now being: compound concentration 8 μM; fold shift of colistin MIC; nc = no changeover or no shift.
In the case of `O=C(Nc1cccc(C(F)(F)F)c1)c1c[nH]c2ccc(Br)cc12` [compound 428], the “colistin MIC shift, Ab23” value is 4x.

Still in this experiment, the particulars now being: compound concentration 10 μM; fold shift of colistin MIC; nc = no changeover or no shift.
Regarding `Fc1cccc(/C=C/c2c[nH]c3cc(F)ccc23)c1` [compound 399], the “colistin MIC shift, Ab23” value amounted to 8x.
In the case of `O=C(O)Cn1cc(/C=C/c2ccc(Cl)c(Cl)c2)c2ccc(F)cc21` [compound 416], the “colistin MIC shift, Ab23” value amounted to 4x.
The same measure, in the same setting: to `O=C(O)CCn1cc(/C=C/c2ccc(Cl)c(Cl)c2)c2ccc(F)cc21` [compound 417] belongs 8x.
